From patent publication US20060235078A1, “Insulin secretion potentiator” (Use-Techno Corporation, priority 2003, published 2006)

What was measured:
KK-Ay mice = assay: blood glucose level in KK-Ay mice (genetic type II diabetes model) after oral administration; type: in vivo; conditions: 10 mg/kg oral, blood sampled before and at 4 and 7 hours after administration (tormentic acid: before and 4 hours), n=4, p 0.05
Experimental: KK-Ay mice (CLEA Japan, Inc.), a genetic type II diabetes model, were used as the test animals. […] The animal feeding conditions were at constant temperature (22±2° C.) throughout the test period, and the light-dark period was 12 hours (light period: 9:00 am-9:00 pm). The feed (CE-2, CLEA Japan, Inc.) and water (tap water) were made freely available. The test substance was forcefully administered to the KK-Ay mice using a glass syringe and oral probe. The dose of each test substance was 10 mg/kg. Blood was sampled from the ocular fundus, immediately prior to and at 4 hours and 7 hours after the administration (for tormentic acid, immediately prior to and at 4 hours after the administration). The blood glucose was measured with a Glucose CII Test Wako (Wako Pure Chemical Industries Co., Ltd.).
The test substances used for this example were: corosolic acid (isolated from banaba leaves), maslinic acid (isolated from banaba leaves), asiatic acid (purchased from LKT Laboratories), 2α,19α-dihydroxy-3-oxo-urs-12-en-28-oic acid (isolated from loquat callus), ursolic acid (purchased from LKT Laboratories), oleanolic acid (purchased from LKT Laboratories), α-amyrin (purchased from LKT Laboratories), β-amyrin (purchased from LKT Laboratories), hederagenin (purchased from LKT Laboratories), 18β-glycyrrhetinic acid (purchased from Wako Pure Chemical Industries Co., Ltd.), sapindoside B (isolated from soapberry), and tormentic acid (isolated from loquat callus).
The blood glucose levels were measured using four KK-Ay mice for each test substance. The measurement results were recorded as mean±SE. Significant change in the blood glucose level was judged by Student's t-test with the significance level (p value) as 0.05.

[1] = tested on: borderline diabetic patients; assay: glucose tolerance test after administration of corosolic acid or placebo, blood insulin level (IRI) assayed; type: in vivo, human; conditions: 31 borderline diabetic patients, 10 mg oral, 75 g oral glucose load
Experimental: The following test was conducted to confirm that corosolic acid has an early insulin secretion stimulating effect. A glucose tolerance test was performed after administration of corosolic acid or a placebo, in a double-blind crossover manner, and the blood insulin level (IRI: immunoreactive insulin) was assayed. Significant change in the IRI was judged by Student's t-test with the significance level (p value) as 0.05.
First, 31 borderline diabetic patients as test subjects were orally administered corosolic acid (10 mg, ≧99% purity) or a placebo, and blood was sampled immediately thereafter with the blood insulin level at that time designated as the value at 0 minutes. Immediately after blood sampling, 75 g of glucose was orally administered to each test subject to start a glucose tolerance test, and blood was sampled after periods of 30 minutes, 60 minutes, 90 minutes, 120 minutes and 180 minutes for measurement of the blood insulin level.
FIG. 1 is a graph showing changes in the blood insulin levels during the glucose tolerance test. The horizontal axis represents time (minutes) after start of the glucose tolerance test, and the vertical axis represents IRI (μU/mL). In the graph, (a) is a case with administration of corosolic acid and (b) is a case with administration of the placebo.

Structure (SMILES) | hypoglycemic effect (change in blood glucose level) (KK-Ay mice) | blood insulin level (IRI) compared to placebo ([1]; 30 minutes after start of glucose tolerance test) | blood insulin level (IRI) compared to placebo ([1]; 120 minutes after start of glucose tolerance test)
C[C@@H]1CC[C@]2(C(=O)O)CC[C@]3(C)C(=CC[C@@H]4[C@@]5(C)C[C@@H](O)C(=O)C(C)(C)[C@@H]5CC[C@]43C)[C@@H]2[C@]1(C)O [2α,19α-dihydroxy-3-oxo-urs-12-en-28-oic acid] | significant hypoglycemic effects | – | –
CC1(C)[C@@H](O)CC[C@]2(C)[C@H]3C(=O)C=C4[C@@H]5C[C@@](C)(C(=O)O)CC[C@]5(C)CC[C@@]4(C)[C@]3(C)CC[C@@H]12 [18β-glycyrrhetinic acid] | no definite hypoglycemic effect | – | –
CC1(C)CC[C@]2(C(=O)O)CC[C@]3(C)C(=CC[C@@H]4[C@@]5(C)C[C@@H](O)[C@H](O)C(C)(C)[C@@H]5CC[C@]43C)[C@@H]2C1 [Maslinic acid, maslinic acid] | did not exhibit a significant hypoglycemic effect but did exhibit a tendency toward reducing blood glucose level | – | –
C[C@H]1[C@H](C)CC[C@]2(C(=O)O)CC[C@]3(C)C(=CC[C@@H]4[C@@]5(C)C[C@@H](O)[C@H](O)[C@@](C)(CO)[C@@H]5CC[C@]43C)[C@H]12 [asiatic acid] | significant hypoglycemic effects | – | –
C[C@H]1[C@H](C)CC[C@]2(C(=O)O)CC[C@]3(C)C(=CC[C@@H]4[C@@]5(C)C[C@@H](O)[C@H](O)C(C)(C)[C@@H]5CC[C@]43C)[C@H]12 [corosolic acid] | significant hypoglycemic effects | significant increase in blood insulin level | significant drop in blood insulin level
CC1(C)CC[C@]2(C(=O)O)CC[C@]3(C)C(=CC[C@@H]4[C@@]5(C)CC[C@H](O)[C@@](C)(CO)[C@@H]5CC[C@]43C)[C@@H]2C1 [hederagenin] | no definite hypoglycemic effect | – | –
CC1(C)CC[C@]2(C(=O)O)CC[C@]3(C)C(=CC[C@@H]4[C@@]5(C)CC[C@H](O)C(C)(C)[C@@H]5CC[C@]43C)[C@@H]2C1 [oleanolic acid] | no definite hypoglycemic effect | – | –
C[C@@H]1O[C@@H](O[C@H]2[C@H](O[C@H]3CC[C@@]4(C)[C@@H](CC[C@]5(C)[C@@H]4CC=C4[C@@H]6CC(C)(C)CC[C@]6(C(=O)O)CC[C@]45C)[C@]3(C)CO)OC[C@H](O)[C@@H]2O)[C@H](O)[C@H](O[C@@H]2OC[C@@H](O)[C@H](O)[C@H]2O)[C@H]1O [sapindoside B] | no definite hypoglycemic effect | – | –
C[C@@H]1CC[C@]2(C(=O)O)CC[C@]3(C)C(=CC[C@@H]4[C@@]5(C)C[C@@H](O)[C@H](O)C(C)(C)[C@@H]5CC[C@]43C)[C@@H]2[C@]1(C)O [tormentic acid] | significant hypoglycemic effects | – | –
C[C@H]1[C@H](C)CC[C@]2(C(=O)O)CC[C@]3(C)C(=CC[C@@H]4[C@@]5(C)CC[C@H](O)C(C)(C)[C@@H]5CC[C@]43C)[C@H]12 [ursolic acid] | no definite hypoglycemic effect | – | –
C[C@H]1[C@H](C)CC[C@]2(C)CC[C@]3(C)C(=CC[C@@H]4[C@@]5(C)CC[C@H](O)C(C)(C)[C@@H]5CC[C@]43C)[C@H]12 [α-amyrin] | no definite hypoglycemic effect | – | –
CC1(C)CC[C@]2(C)CC[C@]3(C)C(=CC[C@@H]4[C@@]5(C)CC[C@H](O)C(C)(C)[C@@H]5CC[C@]43C)[C@@H]2C1 [β-amyrin] | no definite hypoglycemic effect | – | –
